From US8883789B2, “Piperazine derivatives and their use as positive allosteric modulators of mGluR5 receptors” (Boehringer Ingelheim International GmbH, priority 2011, dated 2014)

Target: T1, human recombinant mGluR5 (Homo sapiens, UniProt P41594)
T1 construct: expressed in transfected cells; hygromycin and geneticin selection
Experiment: positive modulation of mGluR5, calcium based FLIPR assay
Details: HEK 293 cell line expressing human recombinant mGluR5; Ca2+ peak height after glutamate at approximately 5% basal stimulation; nonlinear regression
Outline: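 HEK293 cells with tetracycline-free induction, Calcium-4 dye-loaded in Ringer pH 7.4. Compound added 5 min before glutamate at ~5% of maximal effect, 1% DMSO. EC50 from peak Ca2+ fluorescence, normalized to basal glutamate (100%) and 10 μM CDPPB (200%), via nonlinear regression.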

T1 sequence (P41594 21-1212): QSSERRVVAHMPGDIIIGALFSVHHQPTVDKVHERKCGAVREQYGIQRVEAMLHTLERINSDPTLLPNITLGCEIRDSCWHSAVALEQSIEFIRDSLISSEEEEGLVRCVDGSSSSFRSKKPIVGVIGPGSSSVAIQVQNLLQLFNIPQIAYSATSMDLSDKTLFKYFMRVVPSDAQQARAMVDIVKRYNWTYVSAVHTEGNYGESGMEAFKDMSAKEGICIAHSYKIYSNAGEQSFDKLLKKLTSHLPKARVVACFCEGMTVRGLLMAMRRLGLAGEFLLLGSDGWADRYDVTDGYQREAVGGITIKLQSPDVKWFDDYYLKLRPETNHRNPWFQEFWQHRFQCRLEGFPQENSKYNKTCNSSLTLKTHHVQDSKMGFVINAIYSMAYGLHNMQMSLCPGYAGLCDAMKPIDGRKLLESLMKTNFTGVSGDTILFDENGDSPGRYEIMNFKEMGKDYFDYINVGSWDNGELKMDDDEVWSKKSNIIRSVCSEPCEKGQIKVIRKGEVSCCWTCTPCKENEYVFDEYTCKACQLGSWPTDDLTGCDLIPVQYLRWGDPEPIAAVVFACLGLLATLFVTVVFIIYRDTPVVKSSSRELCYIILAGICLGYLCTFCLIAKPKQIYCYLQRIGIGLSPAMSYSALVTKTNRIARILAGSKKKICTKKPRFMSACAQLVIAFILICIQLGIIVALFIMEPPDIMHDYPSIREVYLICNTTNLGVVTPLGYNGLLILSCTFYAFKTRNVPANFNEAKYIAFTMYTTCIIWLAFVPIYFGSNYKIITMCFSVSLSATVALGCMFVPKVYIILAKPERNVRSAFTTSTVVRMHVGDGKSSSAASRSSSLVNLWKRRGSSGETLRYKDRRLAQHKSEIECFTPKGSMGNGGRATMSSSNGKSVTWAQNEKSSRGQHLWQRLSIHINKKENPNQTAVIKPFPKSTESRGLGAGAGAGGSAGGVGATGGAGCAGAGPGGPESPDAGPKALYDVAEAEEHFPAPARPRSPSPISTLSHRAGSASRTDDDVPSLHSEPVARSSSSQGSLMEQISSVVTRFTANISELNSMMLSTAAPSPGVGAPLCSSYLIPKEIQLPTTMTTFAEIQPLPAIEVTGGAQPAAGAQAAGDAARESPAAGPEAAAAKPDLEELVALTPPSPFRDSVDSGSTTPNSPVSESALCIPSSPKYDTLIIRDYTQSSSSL

Row | EC50 | SMILES
1 | 50 nM | CC(C)Oc1nc(C(=O)N2CCN(C(=O)c3ncn(-c4ccccc4)n3)C(C)(C)C2)cc2ccccc12 [Example 118]
2 | 63 nM | CC(=O)c1cccc(C(=O)N2CCN(C(=O)c3ncn(-c4cccc(Cl)c4)n3)C(C)(C)C2)n1 [Example 52]
3 | 56 nM | CC1(C)CN(C(=O)c2cc(Cl)c3c(c2)OCCO3)CCN1C(=O)c1nnn(-c2cccc(Cl)c2)n1 [Example 171, [4-(8-Chloro-2,3-dihydro-benzo[1,4]dioxine-6-carbonyl)-2,2-dimethyl-piperazin-1-yl]-[2-(3-chloro-phenyl)-2H-tetrazol-5-yl]-methanone]
4 | 27 nM | COc1cc(Cl)cc(C(=O)N2CCN(C(=O)c3nnn(-c4cccc(F)c4)n3)C(C)(C)C2)n1 [Example 169, [4-(4-Chloro-6-methoxy-pyridine-2-carbonyl)-2,2-dimethyl-piperazin-1-yl]-[2-(3-fluoro-phenyl)-2H-tetrazol-5-yl]-methanone]
5 | 254 nM | Cn1nc(C(=O)N2CCN(C(=O)c3ncn(-c4ccccc4)n3)C(C)(C)C2)c2ccccc21 [Example 123]
6 | 120 nM | CC1(C)CN(C(=O)c2cc(Cl)cc(C(F)(F)F)c2)CCN1C(=O)c1ncn(-c2ccccc2)n1 [Example 145]
7 | 67 nM | Cc1oc2ccc(F)cc2c1C(=O)N1CCN(C(=O)c2ncn(-c3cccc(F)c3)n2)C(C)(C)C1 [Example 2]
8 | 291 nM | CC1(C)CN(C(=O)c2csc(C(F)(F)F)n2)CCN1C(=O)c1ncn(-c2ccccc2)n1 [Example 152]
9 | 364 nM | Cc1ccc(-n2cnc(C(=O)N3CCN(C(=O)c4cc(Cl)c5c(c4)OCCO5)CC3(C)C)n2)cc1F [Example 157, [4-(8-Chloro-2,3-dihydro-benzo[1,4]dioxine-6-carbonyl)-2,2-dimethyl-piperazin-1-yl]-[1-(3-fluoro-4-methyl-phenyl)-1H-[1,2,4]triazol-3-yl]-methanone]
10 | 383 nM | Cc1cc(Cl)cc(C(=O)N2CCN(C(=O)c3ncn(-c4cccc(Cl)c4)n3)C(C)(C)C2)n1 [Example 36]
11 | 83 nM | CC1(C)CN(C(=O)c2cc(Cl)cc(Br)c2)CCN1C(=O)c1ncn(-c2ccccc2)n1 [Example 125]
12 | 197 nM | Cc1c(C(=O)N2CCN(C(=O)c3ncn(-c4cccc(F)c4)n3)C(C)(C)C2)n(C)c2ccccc12 [Example 6]
13 | 157 nM | C[C@H]1CN(C(=O)c2ncn(-c3cccc(Cl)c3)n2)CCN1C(=O)c1cc(Br)c(Br)o1 [Example 254]
14 | 45 nM | COc1cc(Cl)cc(C(=O)N2CCN(C(=O)c3ncn(-c4cccc(Cl)c4)n3)C(C)(C)C2)n1 [Example 17]
15 | 123 nM | COc1cc(Cl)cc(C(=O)N2CCN(C(=O)c3ncn(-c4ccccc4)n3)C(C)(C)C2)c1 [Example 121]
16 | 88 nM | COc1nc(C(=O)N2CCN(C(=O)c3ncn(-c4cccc(Cl)c4)n3)C(C)(C)C2)cc2ccccc12 [Example 42]
17 | 207 nM | COc1nc(C(=O)N2CCN(C(=O)c3ncn(-c4ccc(F)c(C)c4)n3)C(C)(C)C2)cc2ccccc12 [Example 160, [1-(4-Fluoro-3-methyl-phenyl)-1H-[1,2,4]triazol-3-yl]-[4-(1-methoxy-isoquinoline-3-carbonyl)-2,2-dimethyl-piperazin-1-yl]-methanone]
18 | 142 nM | Cc1cc(C)cc(C(=O)N2CCN(C(=O)c3ncn(-c4cccc(Cl)c4)n3)C(C)(C)C2)c1 [Example 70]
19 | 80 nM | COc1cccc(C(=O)N2CCN(C(=O)c3ncn(-c4cccc(Cl)c4)n3)C(C)(C)C2)c1 [Example 43]
20 | 105 nM | CCCOc1nc(C(=O)N2CCN(C(=O)c3ncn(-c4cccc(Cl)c4)n3)C(C)(C)C2)cc2ccccc12 [Example 87]
21 | 172 nM | CCC1CN(C(=O)c2ncn(-c3cccc(Cl)c3)n2)CCN1C(=O)c1cccc(OC)n1 (stereo not drawn) [Example 258, {4-[1-(3-Chloro-phenyl)-1H-[1,2,4]triazole-3-carbonyl]-2-ethyl-piperazin-1-yl}-(6-methoxy-pyridin-2-yl)-methanone]
